Source: patent publication US6368788B1 (priority 1987, dated 2002)
Marks after values point to notes of the source that are not given here.

Columns and labels:
[1] = Bronchial asthma (Protocol A); format: in vivo, human
Description: Sixty five patients (65) with bronchial asthma, including both adults and children, were entered into the trial: 37 patients were treated with L-Glu-L-Trp and 28 (controls) received conventional therapy alone. L-Glu-L-Trp was administered im in a single daily dose of 1 μg/kg on each of 5-10 consecutive days. […] In certain patients it was possible to eliminate the use of prescribed steroids.

[2] = Acute osteomyelitis / soft tissue inflammation in children (Protocol C); format: in vivo, human
Description: Seventeen hospitalized children (10 boys and 7 girls) were entered into this protocol: 6 with acute inflammatory diseases of soft tissues (abscesses, phlegmons), 4 with odotogenous osteomyelitis of the jaw, and 7 with hematogenous osteomyelitis of the flat and tubular bones. In 11 children, the course of the illness was acute and in 6 it was subacute and chronic.
L-Glu-L-Trp was administered in combination therapy with conventional antibiotic therapies. Where necessary, surgery was performed to drain infectious foci in the jaw or soft tissues, affected teeth were extracted, and for osteomyelitis a port was drilled for infusion of antibiotics. Physical examination and laboratory testing was conducted before administering L-Glu-L-Trp and 2-3 days after the treatment.
Laboratory tests were conducted to determine clinical chemistry and protein values prior to and after therapy (i.e., including the concentrations of bilirubin, creatinine, albumin, cholesterol, urea nitrogen, glucose, protein, chloride, potassium, phosphorus, calcium, sodium, alkaline phosphatase, α1-orosomucoid, α2-macroglobulin, prealbumin, ceruloplasmin, and transferrin). While urea nitrogen and cholesterol decreased slightly after therapy, these and all other changes observed after L-Glu-L-Trp treatment were not statistically significant.

[3] = Post-term women (Protocol D); set-up: species or system human; conditions: in vivo
Description: Nineteen patients (19 women) post-term were treated with L-Glu-L-Trp and 48 women received conventional post-term treatment as a control group.

Staphylococcus aureus = experiment: Survival after acute peritonitis with LD100 dose of antibiotic-resistant Staphylococcus aureus, prophylactic treatment; conditions: for Percentage Survivors: ip prophylactic
Corneal diseases = conditions: in vivo
[4] = tested on: peripheral blood lymphocytes; experiment: Protocol A3 Group 1A: chronic pyoderma; format: in vivo, human
From the text: Group 1A (a subgroup of Group 1) consisted of 32 patients (17 males and 15 females ranging from 17 to 42 years of age) with chronic pyococcal skin diseases including furunculosis, disseminated impetigo, multiple ecthymas, recurring osteofolliculitis, seborrhea adiposa, and concrete seborrhea complicated by vulgar or abscessing acne. Diseases were characterized by a chronic course or frequent relapses, and at the time of presentation for entry into the trial, all patients had received several prior courses of antibiotic therapy, none of which led to any detectable clinical improvement. Patients in Group 1A were randomly divided into two treatment groups, the first consisting of 16 patients treated with L-Glu-L-Trp according to Therapy A, below, and the second consisting of 16 patients treated (as a control) according to conventional therapeutic methods- i.e., Therapy B (below).
In treatment Protocol A, all patients received L-Glu-L-Trp in combination with antibiotics.
Therapy B (conventional therapy control): All patients in this protocol received the same antibiotics as in Therapy A and a nonspecific stimulatory agent, i.e., Thymogenin instead of L-Glu-L-Trp.
Local antibiotics were administered as follows: Ampicillin (4), oxacillin (4), Levomycetin (1), tetracycline (9), Rondomycin (2), deoxycycline (8), cephalexin (2), and Rifampicin (1).

[5] = children, After L-Glu-L-Trp Therapy (2-3 days after treatment)
[6] = Group 1A chronic pyoderma, after L-Glu-L-Trp Therapy (n = 16)

## L-Glu-L-Trp
[1]; in vivo
  Patients with disappearance of symptoms of food and drug allergies: more than half
[1]; year long follow-up
  Decrease in the incidence of bronchial asthmatic attacks: 4.2 fold
[2]; [5]
  B-Lymphocytes: % of PBL: 15.1 ± 3.32 % of PBL
  B-Lymphocytes: No.: 0.41 ± 0.11 10^9/L
  C3: 0.72 ± 0.05 g/L
  IgA: 1.68 ± 0.18 g/L
  IgG: 14.4 ± 1.31 g/L
  IgM: 1.64 ± 0.26 g/L
  LMIR: % Con A: 49.7 ± 13.7 %
  LMIR: % PHA: 47.7 ± 11.2 %
  Leukocytes: 7.0 ± 0.4^† 10^9/L
  Lymphocytes: % of PBL: 43 ± 3.61 % of PBL
  Lymphocytes: No.: 3.15 ± 0.41 10^9/L
  Neutrophils: 3.4 ± 0.33 ×10^9/L
  Neutrophils: % PBL: 50 ± 4.8 % PBL
  Null-Lymphocytes: % of PBL: 18.7 ± 4.68 % of PBL
  Null-Lymphocytes: No.: 0.42 ± 0.11^† 10^9/L
  T-Lymphocytes: % of Lym: 66.2 ± 2.57 % of Lym
  T-Lymphocytes: No.: 1.7 ± 0.3 10^9/L
  T-helper (Etr-RFC): % of Lym: 57.3 ± 6.34 % of Lym
  T-helper (Etr-RFC): No.: 1.4 ± 0.24 10^9/L
  T-suppressor: % of Lym: 8.8 ± 5.4 % of Lym
  T-suppressor: No.: 0.3 ± 0.2 10^9/L
[2]; in vivo
  Wounds cleaned and granulated earlier than usual: 2 to 3 days
[3]
  Clinical outcome: resulting in a normal delivery
Staphylococcus aureus; 24 hours before challenge
  Survival by time of single prophylactic ip injection: more surviving animals than if pretreatment was at 1, 48, or 72 hrs
Staphylococcus aureus; 24 hours, Glu-Trp dose 0.01 μg/kg (alone or + Ampicillin)
  Percentage Survivors: 31.5%
Staphylococcus aureus; 24 hours, Glu-Trp dose 0.1 μg/kg (alone or + Ampicillin)
  Percentage Survivors: 33.3%
Staphylococcus aureus; 24 hours, Glu-Trp dose 1 μg/kg (alone or + Ampicillin)
  Percentage Survivors: 50.0* %
Staphylococcus aureus; 24 hours, Glu-Trp dose 10 μg/kg (alone or + Ampicillin)
  Percentage Survivors: 83.3* %
Staphylococcus aureus; 24 hours, Glu-Trp dose 100 μg/kg (alone or + Ampicillin)
  Percentage Survivors: 88.9* %
Staphylococcus aureus; 24 hours, dose cell empty (line after 100 μg/kg)
  Percentage Survivors: 83.3* %
Staphylococcus aureus; 48 hours, Glu-Trp dose 0.01 μg/kg (alone or + Ampicillin)
  Percentage Survivors: 3.7%
Staphylococcus aureus; 48 hours, Glu-Trp dose 0.1 μg/kg (alone or + Ampicillin)
  Percentage Survivors: 0%
Staphylococcus aureus; 48 hours, Glu-Trp dose 1 μg/kg (alone or + Ampicillin)
  Percentage Survivors: 27.8* %
Staphylococcus aureus; 48 hours, Glu-Trp dose 10 μg/kg (alone or + Ampicillin)
  Percentage Survivors: 50.0* %
Staphylococcus aureus; 48 hours, Glu-Trp dose 100 μg/kg (alone or + Ampicillin)
  Percentage Survivors: 61.1* %
Staphylococcus aureus; 48 hours, dose cell empty (line after 100 μg/kg)
  Percentage Survivors: 72.2* %
Staphylococcus aureus; 72 hours, Glu-Trp dose 0.01 μg/kg (alone or + Ampicillin)
  Percentage Survivors: 0%
Staphylococcus aureus; 72 hours, Glu-Trp dose 0.1 μg/kg (alone or + Ampicillin)
  Percentage Survivors: 0%
Staphylococcus aureus; 72 hours, Glu-Trp dose 1 μg/kg (alone or + Ampicillin)
  Percentage Survivors: 5.6%
Staphylococcus aureus; 72 hours, Glu-Trp dose 10 μg/kg (alone or + Ampicillin)
  Percentage Survivors: 33.3* %
Staphylococcus aureus; 72 hours, Glu-Trp dose 100 μg/kg (alone or + Ampicillin)
  Percentage Survivors: 50.0* %
Staphylococcus aureus; 72 hours, dose cell empty (line after 100 μg/kg)
  Percentage Survivors: 55.6* %
Staphylococcus aureus; ip or im routes
  Survival: increased the percentage of animals surviving challenge with a lethal number of Staphylococcus aureus
Staphylococcus aureus; single agent or combined therapy
  Survival, multiple treatment regimen at 72, 48 and 24 hrs: significantly higher (p<0.05) survival than a single treatment dose
Corneal diseases
  Clinical outcome: stimulates regeneration of corneal epithelium and restoration of visual acuity
[4]; [6]
  B-Lymphocytes: 0.15 ± 0 ×10^9/L
  B-Lymphocytes % Normal Value: (31%)
  B-Lymphocytes (%): 7 ± 3%
  Basophils (%): 0.01 ± 0%
  Eosinophils (%): 4.2 ± 1%
  Erythrocyte (sed. rate mm): 13.1 ± 1 mm
  Erythrocytes: 4.2 ± 0.1 10^12/L
  IgA: 2.7 ± 1 g/L
  IgA % Normal Value: (143%)
  IgG: 16.2 ± 1 g/L
  IgG % Normal Value: (150%)
  IgM: 1 ± 0 g/L
  IgM % Normal Value: (65%)
  Leukocytes: 8.7 ± 0.5 ×10^9/L
  Leukocytes % Normal Value: (130%)
  Lymphocytes: 2.0 ± 0.2 ×10^9/L
  Lymphocytes % Normal Value: (71%)
  Lymphocytes, %: 25.9 ± 2.2%
  Monocytes, %: 4.5 ± 1%
  Neutrophils, %: 63.8 ± 4%
  T-Lymphocytes: 1.15 ± 0 ×10^9/L
  T-Lymphocytes % Normal Value: (68%)
  T-Lymphocytes (%): 52.3 ± 5%
  T-helper: 0.92 ± 0.09 ×10^9/L
  T-helper % Normal Value: (70%)
  T-helper (%): 45.4 ± 4.9%
  T-suppressor: 0.51 ± 0 ×10^9/L
  T-suppressor % Normal Value: (131%)
  T-suppressor (%): 28.2 ± 4%
[4]; Group 1A, L-Glu-L-Trp Therapy
  Blast Transform., Con-A: 62.8 ± 8 % of PBL
  Blast Transform., PHA: 42.7 ± 7 % of PBL
  Blast Transform., Staph-A: 85.6 ± 9 % of PBL
